Test results from the METLIN SMRT retention time set (Domingo-Almenara et al. 2019).

Experiment: gradient 5% acetonitrile 3 min, to 50% in 2 min, to 85% in 15 min, held 3 min, 100 µL/min
Conditions: column: Zorbax Extend-C18 2.1 x 50 mm; eluents: water / acetonitrile, 0.1% formic acid
How it was run: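 The system's dead and dwell volumes were 40 μL and 900 μL, with a Zorbax Extend-C18 column (2.1 × 50 mm, 1.8 μm) run at 100 μL/min in water and acetonitrile containing 0.1% formic acid each. Pure standards were analyzed in mixtures of ~100 molecules by HPLC–quadrupole time-of-flight mass spectrometry in positive and negative ionization mode. Retention time was assigned from computationally picked, manually inspected adduct peaks.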

| SMILES | RP-LC retention time |
| --- | --- |
| COCC(=O)Nc1ccc2nc(-c3ccc(F)cc3)cc(OCC(=O)OC)c2c1 | 682 s |
| Cn1cccc1C(=O)N1CC(c2nc(CCOC3CCCC3)no2)C1 | 845 s |
| CCOc1ccc(NC(=O)C2CCCN(c3nnc4cccc(C)n34)C2)cc1 (stereo not given) | 724 s |
| Cc1nc2cc(N3CC(C(=O)NCc4ccc(OC(C)C)cc4)CC3=O)ccc2o1 (stereo not given) | 778 s |
| CCc1nn(CC(=O)NCCc2c[nH]c3ccccc23)c(=O)c2cc3sc(C)cc3n12 | 894 s |
| Cc1ccc(NC(=O)N2CC(n3cnnc3-c3ccccc3)C2)cc1C | 715 s |
| CC1CCN(S(=O)(=O)c2ccc3nn(Cc4ccccc4F)c(=O)n3c2)CC1 | 653 s |
| c1ccc(OCc2nc(-c3ccc4c(c3)ncn4CCN3CCCCC3)no2)cc1 | 652 s |
| COc1ncc(C(=O)Nc2ccc(Cl)cc2)c(C)n1 | 786 s |
| CCn1nc(CNC(=O)Cc2cccs2)c2ccccc21 | 766 s |
| Cc1oc(C2CCN(C(=O)Nc3ccc(F)cc3F)CC2)nc1C(=O)N1CCCC1 | 744 s |
| CN(CC1CCCO1)C1CCN(C(=O)C2CCN(c3ccc(-c4cccs4)nn3)CC2)CC1 (stereo not given) | 567 s |
| Cc1cc2c(cc1S(=O)(=O)N1CCCC1C(=O)NCc1ccc3c(c1)OCO3)OC(C)C(=O)N2 (stereo not given) | 755 s |
| Cc1cccc(NC(=O)Cn2c(=O)n(-c3ccc(F)cc3)c3ncccc32)c1C | 880 s |
| COc1ccc(NC(=O)N2CCCC(Cn3cnc4cccnc43)C2)cc1 (stereo not given) | 610 s |
| Cc1cccc(NC(=O)Cn2c(C)nc3c(sc4nc(-c5ccccc5)ccc43)c2=O)c1 | 880 s |
| COCc1nc(C2CCN(S(=O)(=O)c3ccc4c(c3)CCC4)C2)no1 (stereo not given) | 928 s |
| O=C(Cn1nc2c(N3CCCCCC3)nccn2c1=O)NC1CCCCC1 | 681 s |
| COc1cccc(Cn2nc(-c3nc(-c4cccc(Cl)c4)no3)ccc2=O)c1 | 1180 s |
| Cc1cccc(C)c1NC(=O)CN1C(=O)NC2(CCCCC2)C1=O | 745 s |
| CSc1cccc(N2C=C(C(=O)N3CCCC3)S(=O)(=O)c3ccccc32)c1 | 819 s |
| Cc1ccc(NC(=O)Nc2ccc(CC(N)=O)cc2)cc1C | 675 s |
| Cc1nn(C)c(C)c1CCC(=O)N1CCN(S(C)(=O)=O)CC1 | 543 s |

| SMILES | RP-LC retention time |
| --- | --- |
| O=C(CCNc1c(-c2cccc(F)c2)nc2cnccn12)N1CCOCC1 | 630 s |
| CC(C)CN1CCN(S(=O)(=O)c2ccc(-c3nnc(C4CC4)o3)o2)CC1 | 637 s |
| COc1ccc(-c2c(C)noc2NC(C)=O)cc1S(=O)(=O)Nc1ccc(F)cc1F | 743 s |
| CC(C)C(=O)N1CCc2cc(-c3ccc(C(=O)N4CCN(C(=O)c5ccco5)CC4)cc3)ccc21 | 830 s |
| O=C(NCCn1nnc2cc(C(=O)N3CCCC3)ccc21)Nc1ccc(F)cc1 | 662 s |
| COc1ccc(-c2[nH]ncc2CN2C[C@@H]3CCN(S(C)(=O)=O)C[C@]3(CF)C2)cc1 | 590 s |
| O=C(O)c1nnn(-c2ccccc2F)c1-c1ccccn1 | 657 s |
| O=C(COc1ccc(Cl)cc1)Oc1ccc2nc(N3CCOCC3)sc2c1 | 971 s |
| CCn1c(=O)c(C)nc2cc(-c3noc(C4CC(=O)N(c5ccc(C)c(C)c5)C4)n3)ccc21 (stereo not given) | 954 s |
| Cc1ccccc1NC(=O)COc1cccc2c(=O)n(C)ccc12 | 758 s |
| COc1cccc(C(=O)N2CCc3nc[nH]c3C2)c1OC | 555 s |
| CC(C)N1C(=O)c2cccnc2Sc2cc(NC(=O)Cc3ccccc3F)ccc21 | 858 s |
| CCCOc1c(C(=O)OC)sc2ccc(NC(=O)c3cc(-c4cccs4)[nH]n3)cc12 | 1110 s |
| Cc1cc(C)c(-c2csc(Nc3ccccn3)n2)cc1C | 1030 s |
| CCCn1cnc2cc(CNC(=O)c3ccc(-n4c(C)ccc4C)cc3)ccc21 | 722 s |
| CCOc1ccc(NC(=O)C2CCN(S(=O)(=O)c3cn(CC)cn3)CC2)cc1 | 784 s |
| COc1ccc(C2Cn3cnc(C(=O)N4CCC(C(=O)NCCc5cccs5)CC4)c3CO2)cc1 (stereo not given) | 691 s |
| CCc1nc(-c2csc(S(=O)(=O)N3CCC(C(=O)Nc4ccc(OC)cc4)CC3)c2)no1 | 930 s |
| Cc1ccc(NC(=O)C(C)C2CCN(C(=O)Nc3ccc(F)cc3)CC2)cc1Cl (stereo not given) | 974 s |
| O=C(NCc1cccc(Oc2ccc(F)cc2)c1)c1cccnc1 | 588 s |
| Cc1ccc(-n2cccc2CC(=O)NC2CCCCC2)cc1 | 1020 s |
| CN(C(=O)CN1C(=O)C(O)(c2cccc(F)c2)c2ccccc21)c1ccccc1 (stereo not given) | 856 s |
| O=C(CCC1CCN(S(=O)(=O)c2ccccc2F)CC1)NC1CCS(=O)(=O)C1 (stereo not given) | 685 s |

| SMILES | RP-LC retention time |
| --- | --- |
| Cn1cccc1CN(Cc1cccs1)C(=O)CN1C(=O)CCC1=O | 731 s |
| CC(C)CCNC(=O)C1(C)Cn2nc(C(=O)NCc3ccc(N(C)C)cc3)cc2C(=O)N1C (stereo not given) | 619 s |
| CCN1c2ccccc2C(=O)NC12CCN(C(=O)c1ccc(F)c(F)c1)CC2 | 799 s |
| O=C(CNS(=O)(=O)Cc1ccccc1)N1CCOC(c2ccccc2)C1 (stereo not given) | 784 s |
| Cc1nc(NC(=O)N2CCC[C@H]2C(N)=O)sc1-c1ccnc(C(C)(C)C(F)(F)F)c1 | 746 s |
| Cc1c(C(=O)C(=O)N2CCc3ccccc3C2)c2ccccc2n1C | 913 s |
| COC(=O)c1ccc2c(c1)nnn2Cc1cccc(OC)c1 | 880 s |
| COCCNc1c(-c2ccccc2)nc2sc(C(=O)N3CCOCC3)c(C)n12 | 722 s |
| Cc1nc2cc(N3CCCC(C(=O)NC4CCCCC4)C3)cnc2nc1C (stereo not given) | 723 s |
| O=C1CCN(C(=O)COc2ccccc2Cl)c2ccccc2N1 | 718 s |
| CC(C(=O)NCCN1CCOCC1)C1CCN(C(=O)c2cc3cc(Cl)ccc3[nH]2)CC1 (stereo not given) | 589 s |
| Fc1ccccc1N1CCN(Cc2nc(-c3ccc(N4CCCC4)nc3)no2)CC1 | 698 s |
| Cc1nc(-c2cnccn2)n(CC(=O)Nc2ccc(F)c(Cl)c2)c(=O)c1C | 789 s |
| Cn1c(=O)n(C)c2cc(CNC(C)(C)CC(C)(C)C)ccc21 | 624 s |
| CN(CCc1noc(COc2ccccc2)n1)C(=O)Nc1ccccc1C(F)(F)F | 953 s |
| CCCCOc1ccc(Nc2cc(Cl)ccc2C(=O)O)cn1 | 1260 s |
| Cc1cc(C)n(C(CC(=O)O)C(=O)O)n1 (stereo not given) | 525 s |
| Cc1cc(C)cc(Oc2nccn3c(=O)n(CC(=O)Nc4cc(C)ccc4C)nc23)c1 | 974 s |
| O=C(Cc1cccs1)N1CCN(S(=O)(=O)c2cc(-c3noc(C4CCC4)n3)cs2)CC1 | 1010 s |
| CCOc1ccc(CC(=O)N2CCCn3nc(-c4cccc(C)c4)cc3C2)cc1 | 968 s |
| NC(=O)C1CCN(Cc2nc(Cn3ccn4nc(-c5ccccc5)cc4c3=O)no2)CC1 | 618 s |
| Cc1nn(-c2cccc(Cl)c2)c2nc(N3CCCC(C(=O)NC4CC4)C3)sc12 (stereo not given) | 1060 s |
| O=C(c1ccsc1)N1CC(F)(F)C[C@H]1COc1ccc2c(c1)CCC2 | 1150 s |

| SMILES | RP-LC retention time |
| --- | --- |
| Cc1oc(C2CCN(S(=O)(=O)c3cccc(Cl)c3)CC2)nc1C(=O)N(C)C | 864 s |
| O=C(NCc1cccnc1)C1CC(=O)N(c2ccc3c(c2)CCN3C(=O)C2CCC2)C1 (stereo not given) | 598 s |
| Cc1ccc2c(C(=O)NCCc3cccs3)cc(NC(=O)C(C)C)cc2n1 | 643 s |
| CCn1c(=O)sc2cc(S(=O)(=O)N3CCC(C(=O)N4CCCCC4)CC3)ccc21 | 845 s |
| COc1ccc(NC(=O)N2[C@H]3CC[C@@H]2c2cnc(C)nc2C3)c(C)c1 | 645 s |
| Cn1ccc2c(cc(C(=O)NCc3cc(F)cc(F)c3)n2C)c1=O | 701 s |
| O=P(OC1=CCCCC1)(c1ccccc1)c1ccccc1 | 1030 s |
| CCCC(=O)NC1CCN(c2cc(C)cc(C)c2)C1=O (stereo not given) | 750 s |
| CN(C)CCNc1oc(-c2ccc(COc3ccccc3)o2)nc1C#N | 684 s |
| Cc1cccc(-n2c(=O)c3sccc3n(Cc3nc(-c4ccc(C(C)(C)C)cc4)no3)c2=O)c1 | 1260 s |
| COc1ccccc1CNC(=O)Cn1cccc1-c1nnc(-c2ccccc2)o1 | 920 s |
| O=C(CC1CCCC1)N1CCCC(c2nn[nH]n2)C1 (stereo not given) | 660 s |
| COc1cc(NC(=O)COc2cc(C)nc(N3CCCC3)n2)cc(OC)c1OC | 602 s |
| Cc1cccc(CN2C(=O)N(c3ccc(F)cc3)c3ncccc3S2(=O)=O)c1 | 1090 s |
| O=C(c1ccsc1)N1CCN(c2ncnc3c2CCC3)CC1 | 557 s |
| Cc1ccc(C)c(N2CCN(c3ccnc(SCC(=O)Nc4ccc(F)cc4F)n3)CC2)c1 | 1000 s |
| CC(=O)Oc1ccccc1C(=O)N1CCCc2ccccc21 | 868 s |
| Cc1cccc(-c2[nH]ncc2CN)c1 | 561 s |
| CN(C)C(=O)c1cc2cccc3c2n1CCS3 | 816 s |
| O=C(NCc1cccc(F)c1)C1CCN(c2cnc(N3CCSCC3)nc2)CC1 | 793 s |
| COCC(=O)N1CCCCCNC(=O)[C@@H]2CCCC[C@@H]21 | 631 s |
